Reference: patent US8703764B2, “Combination therapy for dementia, depression and apathy” (priority 2003, dated 2014)

How the values were obtained:
[1] = tested on: apathy in a patient with Parkinson's disease; experiment: Case report Example 5: severe apathy in a patient with Parkinson's disease; format: in vivo, human; conditions: before admission to hospital
Excerpt: A person retired sailor developed Parkinson's disease more than 5 years before admission to hospital. After the onset of Parkinson's disease they developed decreased motivation and decreased interest. The severity of the apathy progressed to a near total lack of initiative. A trial of methylphenidate for apathy was unsuccessful. They were admitted to hospital with anxiety, severe apathy and constipation. They were unable to function at home leading to caregiver burn out.
Core symptoms of delirium were absent. A shuffling gait devoid of heel strike or toe push was observed. Arm swing was decreased. This person described decreased motivation in face of clear enjoyment of family visits and the sunshine outside. Their capacity for projective pleasure was preserved. They were satisfied with their accomplishments over their life. They felt their quality of life was reduced by their lack initiative. Objective mood and affect were flat. Thought form was marked by latency but progressed logically to a goal oriented conclusion. Thought content was free of delusions or hallucinations. Language was mildly impaired with paraphasic errors noted. Remote memories were difficult to recall and approximately correct. Their sense of humor and capacity for abstraction were preserved.
This was judged consistent with Parkinson's disease by the registered psychologist.
They could walk four lengths of the hallway. […]

[2] = tested on: patient with depressed mood, lack of pleasure and absent initiative; experiment: Case report Example 6: depressed mood, lack of pleasure and absent initiative in a retired nurse; format: in vivo, human
Description: A 75 year retired nurse lived independently in the community until 2 months prior to admission.
Moclobemide was commenced at 200 mg. daily on day 4, increased to 300 mg. daily and day 6 and continued at 300 mg. daily.
Risperidone was commenced at 0.5 mg daily on day 7, discontinued on day 14 then restarted at 0.5 mg daily alternating with 0.25 mg. daily and continued as such.

[3] = tested on: patient with early onset Alzheimer's disease; experiment: Case report Example 4: patient with early onset Alzheimer's disease, anxiety and depressed mood; conditions: for adverse effect leading to discontinuation: human, in vivo

COC(=O)C(c1ccccc1)C1CCCCN1 (stereo not drawn) [methylphenidate]
trial for apathy [1]: unsuccessful

O=C(NCCN1CCOCC1)c1ccc(Cl)cc1 [moclobemide, p-chloro-N-(2-morpholinoethyl) benzamide]
late afternoon quality of mood and mobility of affect ([2]; by Day 6, moclobemide 200 mg daily from day 4, 300 mg daily from day 6, before risperidone): improved

Cc1nc2n(c(=O)c1CCN1CCC(c3noc4cc(F)ccc34)CC1)CCCC2 [risperidone, 3-[2-[4-(6-fluoro-1,2-benzisoxazol-3-yl)piperidino]ethyl]-2-methyl-6,7,8,9-tetrahydro-4H-pyrido-[1,2-a]pyrimidin-4-one]
extrapyramidal side effects ([2]; shortly after Day 13, risperidone 0.5 mg daily): mild extrapyramidal symptoms emerged | adverse effect leading to discontinuation [3]: emergence of dystonia

COc1ccc(C(CN(C)C)C2(O)CCCCC2)cc1 (stereo not drawn) [venlafaxine]
adverse effect leading to discontinuation [3]: excessive sweating | depressed mood ([3]; venlafaxine 150 mg daily, donepezil 10 mg daily commenced): responded
